Test results from patent US20100267561A1, “HERBICIDAL PYRIDAZINONE DERIVATIVES” (priority 2007, published 2010).
Where two headings read alike, the source gives them in different places.

Key:
Assay type in all cases: in vivo
[1] = test system: barnyardgrass (Echinochloa crus-galli); assay: Test A pre-/postemergence plant response; conditions: for pest or weed control at 125 g/ha / pest or weed control at 500 g/ha: Echinochloa crus-galli, 240 h, read-out: Plant response rating, Barnyardgrass
In short: (§1)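 Soil: loam blended with sand. Formulation: non-phytotoxic solvent mixture plus surfactant, applied as preemergence directed soil spray and as postemergence spray. Scoring: visual, 0 no effect to 100 complete control, roughly 10 days post-treatment in greenhouse.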

corn (Zea mays) = assay: Test A pre-/postemergence plant response; conditions: for Corn plant response rating (crop injury, 0 = no effect, 100 = complete kill) at 125 g/ha / Corn plant response rating (crop injury, 0 = no effect, 100 = complete kill) at 500 g/ha: Zea mays, 240 h
In short: as §1

[2] = test system: giant foxtail (Setaria faberi); assay: Test A pre-/postemergence plant response; conditions: for pest or weed control at 125 g/ha / pest or weed control at 500 g/ha: Setaria faberi, 240 h, read-out: Plant response rating, Foxtail, Giant
In short: as §1

[3] = test system: large crabgrass (Digitaria sanguinalis); assay: Test A pre-/postemergence plant response; conditions: for pest or weed control at 125 g/ha / pest or weed control at 500 g/ha: Digitaria sanguinalis, 240 h, read-out: Plant response rating, Crabgrass, Large
In short: as §1

[4] = test system: morningglory (Ipomoea coccinea); assay: Test A pre-/postemergence plant response
In short: as §1

[5] = test system: pigweed (Amaranthus retroflexus); assay: Test A pre-/postemergence plant response; conditions: for pest or weed control at 125 g/ha / pest or weed control at 500 g/ha: Amaranthus retroflexus, 240 h, read-out: Plant response rating, Pigweed
In short: as §1

[6] = test system: velvetleaf (Abutilon theophrasti); assay: Test A pre-/postemergence plant response
In short: as §1

[7] = test system: wheat (Triticum aestivum); assay: Test A pre-/postemergence plant response; conditions: for plant injury at 125 g/ha / plant injury at 500 g/ha: Triticum aestivum, 240 h, read-out: Plant response rating, Wheat
In short: as §1

[8] = test system: surinam grass (Brachiaria decumbens); assay: Test B pre-/postemergence plant response; conditions: Preemergence; for Surinam Grass plant response rating: 8 g ai/ha
Text: Seeds of plant species selected from blackgrass (Alopecurus myosuroides), downy bromegrass (Bromus tectorum), green foxtail (Setaria viridis), Italian ryegrass (Lolium multiflorum), wheat (Triticum aestivum), wild oat (Avena fatua), catchweed bedstraw (Galium aparine), bermudagrass (Cynodon dactylon), surinam grass (Brachiaria decumbens), cocklebur (Xanthium strumarium), corn (Zea mays), large crabgrass (Digitaria sanguinalis), woolly cupgrass (Eriochloa villosa), giant foxtail (Setaria faberii), goosegrass (Eleusine indica), johnsongrass (Sorghum halepense), kochia (Kochia scoparia), lambsquarters (Chenopodium album), morningglory (Ipomoea coccinea), eastern black (E.B.) nightshade (Solanum ptycanthum), yellow nutsedge (Cyperus esculentus), pigweed (Amaranthus retroflexus), common ragweed (Ambrosia elation), Russian thistle (Salsola iberica), soybean (Glycine max), common (oilseed) sunflower (Helianthus annuus), and velvetleaf (Abutilon theophrasti) were planted and treated preemergence with test chemicals formulated in a non-phytotoxic solvent mixture which included a surfactant.
At the same time, plants selected from these crop and weed species and also winter barley (Hordeum vulgare), canarygrass (Phalaris minor), chickweed (Stellaria media) and windgrass (Apera spica-venti) were treated with postemergence applications of some of the test chemicals formulated in the same manner. Plants ranged in height from 2 to 18 cm (1- to 4-leaf stage) for postemergence treatments.
Plant species in the flooded paddy test consisted of rice (Oryza sativa), umbrella sedge (Cyperus difformis), ducksalad (Heteranthera limosa) and barnyardgrass (Echinochloa crus-galli) grown to the 2-leaf stage for testing. At time of treatment, test pots were flooded to 3 cm above the soil surface, treated by application of test compounds directly to the paddy water, and then maintained at that water depth for the duration of the test. Treated plants and controls were maintained in a greenhouse for 13 to 15 days, after which time all species were compared to controls and visually evaluated. Plant response ratings, summarized in Table B, are based on a scale of 0 to 100 where 0 is no effect and 100 is complete control. A dash (-) response means no test result.

[9] = Postemergence, 1000 g ai/ha, 0 to 100 scale, 0 no effect, 100 complete control
[10] = Preemergence, 1000 g ai/ha, 0 to 100 scale (0 no effect, 100 complete control)
[11] = 31 g ai/ha, 0 to 100 scale, 0 no effect, 100 complete control
[12] = post-emergence, Postemergence, 125 g ai/ha, 0 to 100 scale, 0 no effect, 100 complete control
[13] = post-emergence, Postemergence, 500 g ai/ha, 0 to 100 scale, 0 no effect, 100 complete control
[14] = pre-emergence, Preemergence, 125 g ai/ha, 0 to 100 scale (0 no effect, 100 complete control)
[15] = pre-emergence, Preemergence, 500 g ai/ha, 0 to 100 scale (0 no effect, 100 complete control)
[16] = Postemergence, 125 g ai/ha, 0 to 100 scale, 0 no effect, 100 complete control
[17] = Postemergence, 500 g ai/ha, 0 to 100 scale, 0 no effect, 100 complete control
[18] = Preemergence, 125 g ai/ha, 0 to 100 scale (0 no effect, 100 complete control)
[19] = Preemergence, 500 g ai/ha, 0 to 100 scale (0 no effect, 100 complete control)

Cc1cc(-c2ccc(C(F)(F)F)cc2)nn1-c1c(OC(=O)C(C)(C)C)cnn(C)c1=O [Compound 2]
80: Plant response rating, Corn (corn (Zea mays); [10]) | Plant response rating, Crabgrass, Large [3, 9]
0: Plant response rating, Morningglory [4, 9] | Plant response rating, Morningglory [4, 10] | Plant response rating, Pigweed [5, 9] | Plant response rating, Pigweed [5, 10]
60: Plant response rating, Velvetleaf [6, 10]
90: Plant response rating, Corn (corn (Zea mays); [9]) | Plant response rating, Foxtail, Giant [2, 9] | Plant response rating, Wheat [7, 9] | Plant response rating, Wheat [7, 10]
40: Plant response rating, Velvetleaf [6, 9]
100: Plant response rating, Barnyardgrass [1, 9] | Plant response rating, Barnyardgrass [1, 10] | Plant response rating, Foxtail, Giant [2, 10] | Plant response rating, Crabgrass, Large [3, 10] | Plant response rating, Surinam Grass ([8]; 250 g ai/ha, scale 0 to 100)
85: Plant response rating, Surinam Grass [8, 11] | Plant response rating, Surinam Grass ([8]; 62 g ai/ha, scale 0 to 100)

Cc1cn(-c2ccc(Cl)cc2)nc1-c1c(O)cnn(C)c1=O [Compound 30, 4-[1-(4-chlorophenyl)-4-methyl-1H-pyrazol-3-yl]-5-hydroxy-2-methyl-3(2H)-pyridazinone]
80%: pest or weed control at 125 g/ha [2, 12]
90%: pest or weed control at 500 g/ha [1, 13] | pest or weed control at 500 g/ha [2, 13] | pest or weed control at 500 g/ha [3, 13] | plant injury at 500 g/ha [7, 15] | pest or weed control at 31 g/ha ([8]; Urochloa decumbens, pre-emergence, 31 g ai/ha, 0 to 100 scale, 0 no effect, 100 complete control, read-out: Plant response rating, Surinam Grass)
50%: pest or weed control at 125 g/ha [1, 12] | plant injury at 500 g/ha [7, 13]
95%: pest or weed control at 62 g/ha ([8]; Urochloa decumbens, pre-emergence, 62 g ai/ha, scale 0 to 100, read-out: Plant response rating, Surinam Grass)
40%: plant injury at 125 g/ha [7, 12] | plant injury at 125 g/ha [7, 14]
70%: Corn plant response rating (crop injury, 0 = no effect, 100 = complete kill) at 500 g/ha (corn (Zea mays); [13]) | Corn plant response rating (crop injury, 0 = no effect, 100 = complete kill) at 500 g/ha (corn (Zea mays); [15])
10: Surinam Grass plant response rating ([8]; scale 0 to 100)
60%: pest or weed control at 125 g/ha [3, 12] | pest or weed control at 16 g/ha ([8]; Urochloa decumbens, pre-emergence, 16 g ai/ha, scale 0 to 100 (0 no effect, 100 complete control), read-out: Plant response rating, Surinam Grass)
0: Plant response rating, Morningglory [4, 16] | Plant response rating, Morningglory [4, 17] | Plant response rating, Morningglory [4, 18] | Plant response rating, Morningglory [4, 19] | Plant response rating, Velvetleaf [6, 16] | Plant response rating, Velvetleaf [6, 17] | Plant response rating, Velvetleaf [6, 18] | Plant response rating, Velvetleaf [6, 19]
0%: Corn plant response rating (crop injury, 0 = no effect, 100 = complete kill) at 125 g/ha (corn (Zea mays); [12]) | Corn plant response rating (crop injury, 0 = no effect, 100 = complete kill) at 125 g/ha (corn (Zea mays); [14]) | pest or weed control at 125 g/ha [5, 12] | pest or weed control at 500 g/ha [5, 13] | pest or weed control at 125 g/ha [5, 14] | pest or weed control at 500 g/ha [5, 15]
100%: pest or weed control at 125 g/ha [1, 14] | pest or weed control at 500 g/ha [1, 15] | pest or weed control at 125 g/ha [2, 14] | pest or weed control at 500 g/ha [2, 15] | pest or weed control at 125 g/ha [3, 14] | pest or weed control at 500 g/ha [3, 15]

Cn1ncc(O)c(-c2nn(-c3ccc(Cl)cc3)cc2Br)c1=O [Compound 31]
80: Plant response rating, Surinam Grass ([8]; 16 g ai/ha, scale 0 to 100 (0 no effect, 100 complete control)) | Surinam Grass plant response rating ([8]; scale 0 to 100)
10: Plant response rating, Corn (corn (Zea mays); [16])
100: Plant response rating, Barnyardgrass [1, 18] | Plant response rating, Barnyardgrass [1, 19] | Plant response rating, Foxtail, Giant [2, 18] | Plant response rating, Foxtail, Giant [2, 19] | Plant response rating, Crabgrass, Large [3, 18] | Plant response rating, Crabgrass, Large [3, 19] | Plant response rating, Surinam Grass [8, 11] | Plant response rating, Surinam Grass ([8]; 62 g ai/ha, scale 0 to 100)
20: Plant response rating, Pigweed [5, 19]
90: Plant response rating, Barnyardgrass [1, 17] | Plant response rating, Foxtail, Giant [2, 16] | Plant response rating, Foxtail, Giant [2, 17] | Plant response rating, Crabgrass, Large [3, 17] | Plant response rating, Wheat [7, 19]
70: Plant response rating, Corn (corn (Zea mays); [17]) | Plant response rating, Corn (corn (Zea mays); [19])
0: Plant response rating, Morningglory [4, 16] | Plant response rating, Morningglory [4, 17] | Plant response rating, Morningglory [4, 18] | Plant response rating, Morningglory [4, 19] | Plant response rating, Pigweed [5, 16] | Plant response rating, Pigweed [5, 17] | Plant response rating, Pigweed [5, 18] | Plant response rating, Velvetleaf [6, 16] | Plant response rating, Velvetleaf [6, 17] | Plant response rating, Velvetleaf [6, 18] | Plant response rating, Velvetleaf [6, 19]
40: Plant response rating, Wheat [7, 16]
60: Plant response rating, Barnyardgrass [1, 16] | Plant response rating, Crabgrass, Large [3, 16] | Plant response rating, Wheat [7, 17] | Plant response rating, Wheat [7, 18]
50: Plant response rating, Corn (corn (Zea mays); [18])
